From patent US8309582B2, “Small molecule Bcl-Xl/Bcl-2 binding inhibitors” (The Ohio State University Research Foundation, priority 2004, dated 2012)
Where two headings read alike, the source gives them in different places.

What was measured:
[1] = molecular target: T1, Bcl-xL (Homo sapiens, UniProt Q07817); test: Competitive fluorescence polarization assay, displacement of Flu-BakBH3 peptide from Bcl-xL; type: binding
T1 construct: fused on or other part: His tag
Protocol: (§1) Competitive Fluorescence Polarization Assay. The binding affinity of the test agent to Bcl-2 and Bcl-xL was analyzed by a competitive fluorescence polarization assay, in which the ability of the agent to displace the binding of a Bak BH3-domain peptide to either Bcl-2 or Bcl-xL was determined. Flu-BakBH3, a Bak-BH3 peptide labeled at the N-terminus with fluorescein, was purchased from Genemed Synthesis (San Francisco, Calif.). C-Terminal-truncated, His-tagged Bcl-xL was purchased from EMD Biosciences (San Diego, Calif.), and soluble GST-fused Bcl-2 was obtained from Santa Cruz (Santa Cruz, Calif.). The KD determination was carried out in a dual-pathlength quartz cell with readings taken at […] at room temperature using a luminescence spectrometer according to an established procedure (17). Determination of IC50 values. Data from cell viability and FP assays were analyzed by using the CalcuSyn software (Biosoft, Ferguson, Mo.) to determine IC50 values, in which the calculation was based on the medium effect equation (18), i.e., Log(fa/fu)=m log(D)−m log(Dm) (equation 1), where fa and fu denote fraction affected and unaffected, respectively; m represents the Hill-type coefficient signifying the sigmoidicity of the dose-effect curve; D and Dm are the dose used and IC50, respectively.

[2] = molecular target: Bcl-2 (Homo sapiens, UniProt P10415); test: Competitive fluorescence polarization assay, displacement of Flu-BakBH3 peptide from Bcl-2; type: binding
Chain of Bcl-2 (P10415 whole entry): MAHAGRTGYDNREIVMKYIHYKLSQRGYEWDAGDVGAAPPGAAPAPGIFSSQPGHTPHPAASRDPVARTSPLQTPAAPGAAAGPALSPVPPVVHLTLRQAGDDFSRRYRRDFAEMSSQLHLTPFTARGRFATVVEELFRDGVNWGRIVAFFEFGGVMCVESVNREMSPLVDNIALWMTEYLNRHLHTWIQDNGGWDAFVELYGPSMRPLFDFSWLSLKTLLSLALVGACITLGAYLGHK
Protocol: as §1

[3] = test system: PC-3 cells; test: Cell viability analysis (MTT) in PC-3 cells; type: cell-based; details: Homo sapiens, PC-3, PC-3 cells, read-out: IC50 (μM) PC3
Protocol: Cell viability analysis. The effect of individual test agents on cell viability was assessed by using the MTT {[3-(4,5-dimethylthiazol-2-yl)-2,5-diphenyl-2H-tetrazolium bromide]} assay in six to twelve replicates. […] Controls received DMSO vehicle at a concentration equal to that in drug-treated cells. […] Supernatants were removed from the wells, and the reduced MTT dye was solubilized in 200 μl/well DMSO. Absorbance at 570 nm was determined on a plate reader.
(§2) Determination of IC50 values. Data from cell viability and FP assays were analyzed by using the CalcuSyn software (Biosoft, Ferguson, Mo.) to determine IC50 values, in which the calculation was based on the medium effect equation (18), i.e., Log(fa/fu)=m log(D)−m log(Dm) (equation 1), where fa and fu denote fraction affected and unaffected, respectively; m represents the Hill-type coefficient signifying the sigmoidicity of the dose-effect curve; D and Dm are the dose used and IC50, respectively.

[4] = MTT assay (IC50 for MTT, Tables 1-9); type: cell-based; details: cell line and unit inferred
Protocol: Cell viability analysis. The effect of individual test agents on cell viability was assessed by using the MTT {[3-(4,5-dimethylthiazol-2-yl)-2,5-diphenyl-2H-tetrazolium bromide]} assay in six to twelve replicates. Cells were seeded and incubated in 96-well, flat-bottomed plates in serum-free media for 24 h, and were exposed to various concentrations of test agents dissolved in DMSO (final concentration, 0.1%) in serum-free RPMI 1640 medium for different time intervals. Controls received DMSO vehicle at a concentration equal to that in drug-treated cells. The medium was removed, replaced by 200 μl of 0.5 mg/ml of MTT in 10% FBS-containing RPMI-1640 medium, and cells were incubated in the CO2 incubator at 37° C. for 2 h. Supernatants were removed from the wells, and the reduced MTT dye was solubilized in 200 μl/well DMSO. Absorbance at 570 nm was determined on a plate reader.
as §2

[5] = WB (IC50 for WB, Tables 1-9); type: cell-based; details: marker, cell line and unit inferred
Protocol: Immunoblotting. Cells in T-75 flasks were collected by scraping, and suspended in 60 μl of phosphate-buffered saline (PBS). Two μl of the suspension was taken for protein analysis using the Bradford assay kit (Bio-Rad, Hercules, Calif.). To the remaining solution was added the same volume of 2×SDS-PAGE sample loading buffer (100 mM Tris-HCl, pH 6.8, 4% SDS, 5% β-mercaptoethanol 20% glycerol, and 0.1% bromophenol blue). The mixture was sonicated briefly, and boiled for 5 min. Equal amounts of proteins were loaded onto 10% SDS-PAGE gels.
After electrophoresis, protein bands were transferred to nitrocellulose membranes in a semidry transfer cell. The transblotted membrane was washed twice with Tris-buffered saline (TBS) containing 0.1% Tween 20 (TBST). After blocking with TBST containing 5% nonfat milk for 40 min, the membrane was incubated with the appropriate primary antibody in TBST-1% nonfat milk at 4° C. overnight. All primary antibodies were diluted 1:1000 in 1% nonfat milk-containing TBST. After treatment with the primary antibody, the membrane was washed three times with TBST for a total of 15 min, followed by incubation with goat anti-rabbit or anti-mouse IgG-horseradish peroxidase conjugates (diluted 1:5000) for 1 h at room temperature and three washes with TBST for a total of 1 h. The immunoblots were visualized by enhanced chemiluminescence.

[6] = unit inferred, read-out: IC50 for inhibiting BH3-mediated protein interactions (Bcl-xL)
[7] = unit inferred, read-out: IC50 for inhibiting BH3-mediated protein interactions (Bcl-2)
[8] = inhibition of Bak BH3 peptide binding to Bcl-xL, FP, read-out: IC50 Bcl-xl/Bak
[9] = inhibition of Bak BH3 peptide binding to Bcl-2, FP, read-out: IC50 Bcl-2/Bak

T1 sequence (Q07817 1-209 limits assumed): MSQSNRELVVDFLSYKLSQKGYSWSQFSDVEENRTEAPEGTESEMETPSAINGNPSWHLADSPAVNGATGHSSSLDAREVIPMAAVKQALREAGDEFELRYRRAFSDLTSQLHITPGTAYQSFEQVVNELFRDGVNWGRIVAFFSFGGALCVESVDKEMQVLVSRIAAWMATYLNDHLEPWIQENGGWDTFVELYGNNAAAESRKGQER

IC50 [1, 6] | IC50 [2, 7] | IC50 [1, 8] | IC50 [2, 9] | IC50 [3] | IC50 [5] | Structure (SMILES) | IC50 [4]
– | – | 4.8 ± 0.5 µM | 7.3 ± 0.3 µM | 10 ± 1.2 µM | – | C=CCOc1c(C)c(C)c2c(c1C)CCC(C)(COc1ccc(/C=C3\SC(=S)NC3=O)cc1)O2 (centres unmarked) [TG-3] | –
– | – | 6 ± 0.5 µM | 5.5 ± 0.4 µM | 11 ± 0.8 µM | 3 µM | C=CCOc1c(C)c(C)c2c(c1C)CCC(C)(COc1ccc(/C=C3\SC(=O)NC3=O)cc1)O2 (centres unmarked) [TG-6] | 9 µM
– | – | 14 ± 1.1 µM | 18 ± 0.9 µM | 18 ± 1.3 µM | 3.6 µM | Cc1c(C)c2c(c(C)c1OCc1ccccc1)CCC(C)(COc1ccc(/C=C3\SC(=O)NC3=O)cc1)O2 (centres unmarked) [TG-12] | –
– | – | 4.5 ± 0.4 µM | 4.8 ± 0.4 µM | 9 ± 1 µM | 7 µM | CC(C)=CCOc1c(C)c(C)c2c(c1C)CCC(C)(COc1ccc(/C=C3\SC(=O)NC3=O)cc1)O2 (centres unmarked) [TG-14] | –
– | – | 16 ± 0.5 µM | 18 ± 0.9 µM | 12 ± 0.9 µM | 3.8 µM | O=C1NC(=O)/C(=C/c2ccc(OCC3CCc4ccccc4C3)cc2)S1 (centres unmarked) [TG-15] | –
– | – | 6.5 ± 0.5 µM | 4.8 ± 0.5 µM | 4.7 ± 0.2 µM | 5.6 µM | COc1cc(/C=C2\SC(=O)NC2=O)ccc1OCC1(C)CCc2c(C)c(OCC=C(C)C)c(C)c(C)c2O1 (centres unmarked) [TG-16] | –
– | – | 2.1 ± 0.2 µM | 2.7 ± 0.4 µM | 5 ± 0.5 µM | > 7.5 µM | C=CCOc1c(C)c(C)c2c(c1C)CCC(C)(COc1ccc(/C=C3\SC(=O)NC3=O)cc1Br)O2 (centres unmarked) [TG-27] | –
– | – | 3 ± 0.3 µM | 3.5 ± 0.6 µM | 5.1 ± 0.4 µM | 3.6 µM | C=CCOc1c(C)c(C)c2c(c1C)CCC(C)(COc1ccc(/C=C3\SC(=O)NC3=O)cc1C)O2 (centres unmarked) [TG-29] | –
– | – | 2 ± 0.2 µM | 2.8 ± 0.4 µM | 4.4 ± 0.4 µM | 2.7 µM | CC(C)=CCOc1c(C)c(C)c2c(c1C)CCC(C)(COc1c(Br)cc(/C=C3\SC(=O)NC3=O)cc1Br)O2 (centres unmarked) [TG-34] | –

The next lines start with the molecule.

Structure (SMILES) | IC50 [1, 6] | IC50 [2, 7] | IC50 [1, 8] | IC50 [2, 9] | IC50 [3] | IC50 [5] | IC50 [4]
CCc1ccc(CCOc2ccc(CC3SC(=O)NC3=O)cc2)nc1 (centres unmarked) [PG, pioglitazone, reference compound] | > 50 µM | > 50 µM | – | – | – | – | –
CN(CCOc1ccc(CC2SC(=O)NC2=O)cc1)c1ccccn1 (centres unmarked) [RG, rosiglitazone, reference compound] | > 50 µM | > 50 µM | – | – | – | – | –
C=CCOc1c(C)c(C)c2c(c1C)CCC(C)(COc1ccc(/C=C3\SC(=O)N(CC(=O)OC)C3=O)cc1)O2 (centres unmarked) [TG-9] | – | – | > 50 µM | > 50 µM | > 50 µM | > 7.5 µM | > 50 µM
Cc1c(C)c2c(c(C)c1OC/C=C/c1ccccc1)CCC(C)(COc1ccc(/C=C3\SC(=O)NC3=O)cc1Br)O2 (centres unmarked) [TG-11] | – | – | 2.2 ± 0.2 µM | 3.1 ± 0.4 µM | 6 ± 0.3 µM | > 7.5 µM | –
CC(C)=CCOc1c(C)c(C)c2c(c1C)CCC(C)(COc1ccc(/C=C3\SC(=O)NC3=O)cc1C)O2 (centres unmarked) [TG-17] | – | – | 2.6 ± 0.3 µM | 3.1 ± 0.4 µM | 4.8 ± 0.3 µM | 3.2 µM | –
C=CCOc1c(C)c(C)c2c(c1C)CCC(C)(COc1ccc(/C=C3\SC(=O)NC3=O)cc1OC)O2 (centres unmarked) [TG-28] | – | – | 4 ± 0.3 µM | 4.4 ± 0.3 µM | 5.2 ± 0.5 µM | 2.3 µM | –
CC(C)=CCOc1c(C)c(C)c2c(c1C)CCC(C)(COc1ccc(/C=C3\SC(=O)NC3=O)cc1F)O2 (centres unmarked) [TG-30] | – | – | 2.7 ± 0.3 µM | 3.4 ± 0.5 µM | 6 ± 0.4 µM | 7.2 µM | –
CC(C)=CCOc1c(C)c(C)c2c(c1C)CCC(C)(COc1ccc(/C=C3\SC(=O)NC3=O)cc1-c1ccc(F)cc1)O2 (centres unmarked) [TG-32] | – | – | 6.5 ± 0.5 µM | 6.6 ± 0.6 µM | 5 ± 0.4 µM | > 7.5 µM | –
